These are literature values, as cited in PubChem BioAssay AID1259409 (Chemical Carcinogenesis Research Information System (CCRIS), 2018).

The subject of this data set is rodent chemically induced tumor inhibition, incidence and multiplicity. The experiment in a line: CCRIS tumor inhibitor studies. As to conditions: Species: MOUSE.

As to `CC(C)=CCC/C(C)=C/C=O`, the outcome (Carcinogen: DIMETHYLBENZANTHRACENE, 57-97-6, Dose [Inhibitor]: 0, 1 UMOL IN ACETONE 2/WK ADMINISTERED PRIOR TO EACH PROMOTER DOSE FOR 20 WK (STUDY DURATION: 21 WK), Route [Inhibitor]: DERMAL, Strain/Sex: SKH/HR1/FEMALE, Target Tissue: Type of Lesion: SKIN: TUMOR, Dose [Carcinogen]: 0.1 UMOL IN 0.1 ML ACETONE ONCE, Promoter: TPA, 16561-29-8) is on record as 88%, 72%, 18%, p 0.05 at 10 wk of promotion: 96%, 96%, 0%, not calculated at 15.

For the compound `Oc1cccc(O)c1O`, the “tumour outcome (control, treated, inhibition, significance)” value reads like this: (Carcinogen: BENZO[A]PYRENE, 50-32-8, Dose [Inhibitor]: 5 MG IN 0.1 ML ACETONE 3/WK ADMINISTERED SIMULTANEOUSLY WITH CARCINOGEN FOR DURATION OF STUDY (STUDY DURATION: 440 D), Route [Inhibitor]: DERMAL, Strain/Sex: ICR/FEMALE, Target Tissue: Type of Lesion: SKIN: PAPILLOMA, Dose [Carcinogen]: 5 UG IN 0.1 ML ACETONE THAT ALSO CONTAINED AGENT 3/WK, Promoter: NONE USED) 16/50 (32%), 40/50 (80%), -150%, not calculated; (Carcinogen: BENZO[A]PYRENE, 50-32-8, Dose [Inhibitor]: 5 MG IN 0.1 ML ACETONE 3/WK ADMINISTERED SIMULTANEOUSLY WITH CARCINOGEN FOR DURATION OF STUDY (STUDY DURATION: 440 D), Route [Inhibitor]: DERMAL, Strain/Sex: ICR/FEMALE, Target Tissue: Type of Lesion: SKIN: SQUAMOUS CARCINOMA, Dose [Carcinogen]: 5 UG IN 0.1 ML ACETONE THAT ALSO CONTAINED AGENT 3/WK, Promoter: NONE USED) 12/50 (24%), 33/50 (66%), -175%, not calculated.

Take `C#Cc1ccc2ccccc2c1`: the “tumour outcome (control, treated, inhibition, significance)” value (Carcinogen: 4-(METHYLNITROSAMINO)-1-(3-PYRIDYL)-1-BUTANONE, 64091-91-4, Dose [Inhibitor]: 0, 5 UMOL IN 0.1 ML CORN OIL ONCE 2 HR PRIOR TO CARCINOGEN DOSE (STUDY DURATION: 16 WK), Route [Inhibitor]: GAVAGE, Strain/Sex: STRAIN-A/FEMALE, Target Tissue: Type of Lesion: LUNG: ADENOMA, Dose [Carcinogen]: 10 UMOL IN 0.1 ML SALINE ONCE, Promoter: NONE USED) is given as 100%, 89%, 11%, not significant; the “tumour outcome (control, treated, inhibition, significance)” value (Carcinogen: 7,12-DIMETHYLBENZ[A]ANTHRACENE, 57-97-6, Dose [Inhibitor]: 0, 3300 NMOL IN 0.2 ML ACETONE APPLIED TO BACK ONCE 5 MIN PRIOR TO CARCINOGEN DOSE (STUDY DURATION: 26 WK), Route [Inhibitor]: DERMAL, Strain/Sex: SENCAR/FEMALE, Target Tissue: Type of Lesion: SKIN: PAPILLOMA, Dose [Carcinogen]: 10 NMOL IN 0.2 ML ACETONE APPLIED TO BACK ONCE) is reported as 100%, 96%, 4%, not calculated; the “tumour outcome (control, treated, inhibition, significance)” value (Carcinogen: 7,12-DIMETHYLBENZ[A]ANTHRACENE, 57-97-6, Dose [Inhibitor]: 0, 66000 NMOL IN 0.2 ML ACETONE APPLIED TO BACK ONCE 5 MIN PRIOR TO CARCINOGEN DOSE (STUDY DURATION: 20 WK), Route [Inhibitor]: DERMAL, Strain/Sex: SENCAR/FEMALE, Target Tissue: Type of Lesion: SKIN: PAPILLOMA, Dose [Carcinogen]: 10 NMOL IN 0.2 ML ACETONE APPLIED TO BACK ONCE.) is listed as 100%, 100%, 0%, not calculated; the “tumour outcome (control, treated, inhibition, significance)” value (Carcinogen: 7,12-DIMETHYLBENZ[A]ANTHRACENE, 57-97-6, Dose [Inhibitor]: 0, 132000 NMOL IN 0.2 ML ACETONE APPLIED TO BACK ONCE 5 MIN PRIOR TO CARCINOGEN DOSE (STUDY DURATION: 20 WK), Route [Inhibitor]: DERMAL, Strain/Sex: SENCAR/FEMALE, Target Tissue: Type of Lesion: SKIN: PAPILLOMA, Dose [Carcinogen]: 10 NMOL IN 0.2 ML ACETONE APPLIED TO BACK ONCE.) was 100%, 89%, 11%, not calculated; the “tumour outcome (control, treated, inhibition, significance)” value (Carcinogen: BENZO[A]PYRENE, 50-32-8, Dose [Inhibitor]: 3300 NMOL IN 0.2 ML ACETONE APPLIED TO BACK ONCE 5 MIN PRIOR TO CARCINOGEN DOSE (STUDY DURATION: 26 WK), Route [Inhibitor]: DERMAL, Strain/Sex: SENCAR/FEMALE, Target Tissue: Type of Lesion: SKIN: PAPILLOMA, Dose [Carcinogen]: 200 NMOL IN 0.2 ML ACETONE APPLIED TO BACK ONCE.) is listed as 100%, 95%, 5%, not calculated; the “tumour outcome (control, treated, inhibition, significance)” value (Carcinogen: BENZO[A]PYRENE, 50-32-8, Dose [Inhibitor]: 33000 NMOL IN 0.2 ML ACETONE APPLIED TO BACK ONCE 5 MIN PRIOR TO CARCINOGEN DOSE (STUDY DURATION: 26 WK), Route [Inhibitor]: DERMAL, Strain/Sex: SENCAR/FEMALE, Target Tissue: Type of Lesion: SKIN: PAPILLOMA, Dose [Carcinogen]: 200 NMOL IN 0.2 ML ACETONE APPLIED TO BACK ONCE.) is reported as 100%, 89%, 11%, not calculated. Further, the “tumour outcome (control, treated, inhibition, significance)” value by setting is: (Carcinogen: BENZO[A]PYRENE, 50-32-8, Dose [Inhibitor]: 66000 NMOL IN 0.2 ML ACETONE APPLIED TO BACK ONCE 5 MIN PRIOR TO CARCINOGEN DOSE (STUDY DURATION: 20 WK), Route [Inhibitor]: DERMAL, Strain/Sex: SENCAR/FEMALE, Target Tissue: Type of Lesion: SKIN: PAPILLOMA, Dose [Carcinogen]: 200 NMOL IN 0.2 ML ACETONE APPLIED TO BACK ONCE.) 75%, 74%, 1%, not calculated; (Carcinogen: N-METHYL-N'-NITRO-N-NITROSOGUANIDINE, 70-25-7, Dose [Inhibitor]: 0, 33000 NMOL IN 0.2 ML ACETONE APPLIED TO BACK ONCE 5 MIN PRIOR TO CARCINOGEN DOSE (STUDY DURATION: 20 WK), Route [Inhibitor]: DERMAL, Strain/Sex: SENCAR/FEMALE, Target Tissue: Type of Lesion: SKIN: PAPILLOMA, Dose [Carcinogen]: 2500 NMOL IN 0.2 ML ACETONE APPLIED TO BACK ONCE.) 78%, 85%, -9%, not calculated. Moreover, the outcome by setting is: (Carcinogen: 7,12-DIMETHYLBENZ[A]ANTHRACENE, 57-97-6, Dose [Inhibitor]: 0, 33000 NMOL IN 0.2 ML ACETONE APPLIED TO BACK ONCE 5 MIN PRIOR TO CARCINOGEN D (STUDY DURATION: 26 WK), Route [Inhibitor]: DERMAL, Strain/Sex: SENCAR/FEMALE, Target Tissue: Type of Lesion: SKIN: PAPILLOMA, Dose [Carcinogen]: 10 NMOL IN 0.2 ML ACETONE APPLIED TO BACK ONCE.) 100%, 100%, 0, not calculated; (Carcinogen: 7,12-DIMETHYLBENZ[A]ANTHRACENE, 57-97-6, Dose [Inhibitor]: 0, 66000 NMOL IN 0.2 ML ACETONE APPLIED TO BACK ONCE 5 MIN PRIOR TO CARCINOGEN DOSE (STUDY DURATION: 26 WK), Route [Inhibitor]: DERMAL, Strain/Sex: SENCAR/FEMALE, Target Tissue: Type of Lesion: SKIN: PAPILLOMA, Dose [Carcinogen]: 10 NMOL IN 0.2 ML ACETONE APPLIED TO BACK ONCE.) 100%, 100%, 0, not calculated.
